Read-outs that look alike come from different tables or passages of the source.
Assays:
Myzus persicae [1] = experiment: Myzus persicae - spray test (bell pepper plants); assay type: in vivo; conditions: 20 ppm, after 6 days
Experimental: Myzus persicae—Spray Test Solvent: 14 parts by weight of dimethylformamide Emulsifier: alkylaryl polyglycol ether […] To produce further test concentrations, the formulation is diluted with emulsifier-containing water. If the addition of ammonium salts or/and penetrants is required, these are each added in a concentration of 1000 ppm to the formulation solution. Bell pepper plants (Capsicum annuum) severely infested with the green peach aphid (Myzus persicae) are treated by spraying with the active compound formulation in the desired concentration.

[2] = log P determination by HPLC on reversed-phase (C18) columns, OECD Guideline 117; assay type: physicochemical
Summary of the method: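 Reversed-phase C18 HPLC per OECD 117, LC-MS with a linear 10% to 95% acetonitrile gradient. Acidic method at pH 2.7 with 0.1% formic acid; neutral method at pH 7.8 with 0.001 M ammonium hydrogencarbonate.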

Myzus persicae [3] = experiment: Myzus persicae - oral test; assay type: in vivo; conditions: after 5 days; for efficacy in % (aphids killed): 20 ppm; for pest or weed control at 20 ppm: Myzus persicae, 120 h, read-out: efficacy in % (aphids killed)
Experimental: Solvent: 100 parts by weight of acetone
Subsequently, the plates are sealed with parafilm, which a mixed population of green peach aphids (Myzus persicae) within a second microtitre plate is able to puncture and imbibe the solution through it.
After 5 days, the efficacy in % is determined. 100% means that all the aphids have been killed; 0% means that no aphids have been killed.

Tetranychus urticae = Tetranychus urticae - spray test, OP-resistant; assay type: in vivo; conditions: 500 g/ha, after 6 days, bean leaf discs
Experimental: Tetranychus Urticae—Spray Test, OP-Resistant
Solvent: 78.0 parts by weight of acetone • • 1.5 parts by weight of dimethylformamide
Emulsifier: alkylaryl polyglycol ether
To produce a suitable preparation of active compound, 1 part by weight of active compound is dissolved using the specified parts by weight of solvent and made up with water containing an emulsifier concentration of 1000 ppm until the desired concentration is attained. To produce further test concentrations, the formulation is diluted with emulsifier-containing water.
Discs of bean leaves (Phaseolus vulgaris) infested with all stages of the greenhouse red spider mite (Tetranychus urticae) are sprayed with an active compound formulation of the desired concentration.
After 6 days, the efficacy in % is determined. 100% means that all the spider mites have been killed; 0% means that no spider mites have been killed.

Myzus persicae [4] = experiment: Myzus persicae - spray test (Chinese cabbage leaf discs); assay type: in vivo; conditions: 500 g/ha, after 6 days
Summary of the method: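 Leaf discs of Chinese cabbage carrying all aphid stages sprayed with compound formulated in acetone/DMF and water with 1000 ppm alkylaryl polyglycol ether emulsifier. Kill rate scored after 6 days as % efficacy (100% all aphids dead, 0% none).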

Meloidogyne incognita = Meloidogyne incognita test; assay type: in vivo; conditions: 20 ppm, after 14 days, lettuce in sand
Experimental: Meloidogyne Incognita Test
Solvent: 125.0 parts by weight of acetone
To produce a suitable active compound formulation, 1 part by weight of active compound is mixed with the stated amount of solvent and the concentrate is diluted with water to the desired concentration.
Vessels are filled with sand, active compound solution, an egg/larvae suspension of the southern root-knot nematode (Meloidogyne incognita) and lettuce seeds. The lettuce seeds germinate and the plants develop. The galls develop on the roots.
After 14 days, the nematicidal efficacy in % is determined by the formation of galls. 100% means that no galls were found; 0% means that the number of galls on the treated plants corresponds to the untreated control.

[5] = HPLC, acidic range pH 2.7, 0.1% aqueous formic acid/acetonitrile
[6] = HPLC, neutral range pH 7.8, 0.001 molar aqueous ammonium hydrogencarbonate/acetonitrile

SMILES	kill in % (aphids killed) (Myzus persicae [1]) [%]	logp-acidic ([2]; pH 2.7)	logp-neutral ([2]; pH 7.8)	efficacy in % (aphids killed) (Myzus persicae [3]) [%]	efficacy in % (spider mites killed) (Tetranychus urticae) [%]	efficacy in % (aphids killed) (Myzus persicae [4]) [%]	other results
CN(C(=O)c1cnc(-c2ccc(F)c(COC(=O)C3CC3)c2)n1C)c1cccnc1 [Example 46]	95	0.73	1.35	100	–	–	–
CN(C(=O)c1cnc(-c2cccc([S+]([O-])C(F)(F)F)c2)n1C)c1cccnc1 (stereo not shown) [Example 49]	100	1.28	1.62	100	–	–	–
CN(C(=O)c1cnc(-c2ccc(F)c(C(F)(F)F)c2)n1C)c1cccnc1 [Example 50]	100	–	–	–	–	–	chromatographic logP ([2]; reversed-phase (C18) HPLC column, pH 2.7, HPLC, acidic range pH 2.7, 0.1% aqueous formic acid/acetonitrile, read-out: logp-acidic): 1.72; chromatographic logP ([2]; reversed-phase (C18) HPLC column, pH 7.8, HPLC, neutral range pH 7.8, 0.001 molar aqueous ammonium hydrogencarbonate/acetonitrile, read-out: logp-neutral): 2.08; pest or weed control at 20 ppm (Myzus persicae [3]): 100%
CN(C(=O)c1cnc(-c2cc(Cl)cc(C(F)(F)F)c2)n1C)c1cccnc1 [Example 51]	100	2.17	2.43	100	–	–	–
CN(C(=O)c1cnc(-c2cccc(C(F)(F)F)c2)n1C)c1cccnc1 [Example 52]	–	1.64	1.99	100	90	100	–
CN(C(=O)c1cnc(-c2cccc(C(F)(F)C(F)(F)F)c2)n1C)c1cccnc1 [Example 57]	–	2.09	2.40	100	90	100	–
CN(C(=O)c1cnc(-c2cc3ccccc3o2)n1C)c1cccnc1 [Example 70]	95	–	–	–	–	–	chromatographic logP ([2]; HPLC, acidic range pH 2.7, 0.1% aqueous formic acid/acetonitrile, read-out: logp-acidic): 1.63; chromatographic logP ([2]; HPLC, neutral range pH 7.8, 0.001 molar aqueous ammonium hydrogencarbonate/acetonitrile, read-out: logp-neutral): 1.87; pest or weed control at 20 ppm (Myzus persicae [3]): 100%
CCOC(=O)c1cc(-c2ncc(C(=O)N(C)c3cccnc3)n2C)on1 [Example 72]	–	1.42	1.51	100	90	–	–
CCN(C(=O)c1cnc(-c2ccccn2)n1C)c1cccnc1 [Example 77]	100	–	–	100	–	100	logp-acidic [2, 5]: 0.97; logp-neutral [2, 6]: 1.39
CN(C(=O)c1cnc(-c2cccc3c2OCO3)n1C)c1cccnc1 [Example 83]	–	–	–	100	–	90	nematicidal efficacy in % (formation of galls) (Meloidogyne incognita): 100%; logp-acidic [2, 5]: 0.9; logp-neutral [2, 6]: 1.44
CC(C)Oc1ccc(-c2ncc(C(=O)N(C)c3cccnc3)n2C)cc1C#N [Example 105]	–	1.55	1.87	100	100	90	–

Source: patent publication US10807968B2, “Substituted 2-(het)arylimidazolylcarboxyamides as pesticides” (Bayer CropScience Aktiengesellschaft, priority 2016, dated 2020)
